Results taken from patent US11279687B2, “Compounds and compositions for the inhibition of NAMPT” (Valo Health, Inc., priority 2010, dated 2022).
Where two headings read alike, the source gives them in different places.

Key:
A2780 cells [1] = experiment: A2780 xenograft study in mice; type: in vivo, C.B-17-Igh-1b-Prkdc^scid mice; settings: female SCID mice, s.c. A2780 tumors, p.o. BID for 5 or 10 days, dose selected from MTD study
Experimental: C.B-17-Igh-1b-Prkdc^scid mice (female) were injected s.c. with 5×10^6 A2780 cells (NCI) in the left flank. 10-12 days later when tumors reached 100-200 mm3 in size, mice were randomized into treatment groups of 8 mice per group including vehicle control and reference standard groups. The compounds were formulated in 60:30:10 PEG-400:D5W: Ethanol and administered p.o., at the dose volume of 10 ml/kg BID for a duration of 5 or 10 days. The dose used for efficacy was selected from the MTD (Maximum Tolerated Dose) study. Mice were weighed and tumors measured using vernier calipers every alternate day. Tumor volume was calculated according to the formula (length×width^2)/2. All animal work was approved by the Institutional Animal Care and Use Committee of Biological Resource Centre, Singapore.

A2780 cells [2] = experiment: In-vitro cell proliferation assay (SRB), A2780 cells; type: cell-based; settings: A2780 cells, 72 hours, SRB, read-out: A2780 IC50;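 note: viable cell number read as SRB absorbance, background from media-only wells subtracted, IC50 interpolated from percent inhibition at two bracketing compound concentrations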
NAMPT = NAMPT (Homo sapiens (Human), UniProt P43490); experiment: NAMPT biochemical inhibition assay (NMN quantified by mass spectrometry); settings: NAMPT biochemical inhibition; read-out: Biochem IC50
Chain of NAMPT (P43490 whole entry): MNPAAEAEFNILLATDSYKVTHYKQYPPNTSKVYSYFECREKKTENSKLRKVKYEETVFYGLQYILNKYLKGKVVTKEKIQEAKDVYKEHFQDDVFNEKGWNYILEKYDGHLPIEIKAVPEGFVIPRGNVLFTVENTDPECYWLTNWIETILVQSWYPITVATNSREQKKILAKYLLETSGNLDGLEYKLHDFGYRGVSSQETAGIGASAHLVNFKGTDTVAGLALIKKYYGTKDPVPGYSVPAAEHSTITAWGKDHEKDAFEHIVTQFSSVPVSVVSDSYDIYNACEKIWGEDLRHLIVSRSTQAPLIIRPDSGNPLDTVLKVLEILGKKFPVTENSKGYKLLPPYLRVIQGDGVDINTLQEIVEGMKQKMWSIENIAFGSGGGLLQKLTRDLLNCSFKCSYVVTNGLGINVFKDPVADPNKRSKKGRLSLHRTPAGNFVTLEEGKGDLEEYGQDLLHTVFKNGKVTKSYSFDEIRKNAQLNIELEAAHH

Row | SMILES | IC50 (A2780 cells [2]; Homo sapiens, A2780, 72 h) [nM] | IC50 (NAMPT) [nM] | effect on tumor growth in A2780 xenograft (A2780 cells [1]) | IC50 (A2780 cells [2]) [nM]
1 | O=C(NCc1cccnc1)Nc1ccc(S(=O)(=O)N2CC3CCC(C2)O3)cc1 [1-(4-{8-oxa-3-azabicyclo[3.2.1]octane-3-sulfonyl}phenyl)-3-(pyridin-3-ylmethyl)urea] | 29 |  | tumor regression | 
2 | O=C(NCc1ccc2nccn2c1)Nc1ccc(S(=O)(=O)c2ccccc2)cc1 [1-[4-(benzenesulfonyl)phenyl]-3-{imidazo[1,2-a]pyridin-6-ylmethyl}urea] | 33 |  | delayed tumor growth | 
3 | O=C(NCc1cccnc1)Nc1ccc(S(=O)(=O)c2ccccc2)cc1 [3-[4-(benzenesulfonyl)phenyl]-1-(pyridin-3-ylmethyl)urea] |  |  | tumor stasis | 
4 | C[C@@H]1CN(S(=O)(=O)c2ccc(NC(=O)NCc3cccnc3)cc2)C[C@H](C)O1 [3-{4-[(2R,6S)-2,6-dimethylmorpholine-4-sulfonyl]phenyl}-1-(pyridin-3-ylmethyl)urea] | 9 |  | delayed tumor growth | 
5 | CCN(CC)C(=O)c1cc(F)cc(S(=O)(=O)c2ccc(NC(=O)NCc3cccnc3)cc2)c1 [N,N-diethyl-3-fluoro-5-[(4-{[(pyridin-3-ylmethyl)carbamoyl]amino[benzene)sulfonyl]benzamide] |  | 1.2 |  | 1.5
6 | CCN(CC)C(=O)c1ccc(F)c(S(=O)(=O)c2ccc(NC(=O)NCc3cccnc3)cc2)c1 [N,N-diethyl-4-fluoro-3-[(4-{[(pyridin-3-ylmethyl)carbamoyl]amino[benzene)sulfonyl]benzamide] |  | 2.4 |  | 88.5
7 | CN(C)C(=O)c1cccc(S(=O)(=O)c2ccc(NC(=O)NCc3cccnc3)cc2)c1 [N,N-dimethyl-3-[(4-{[(pyridin-3-ylmethyl)carbamoyl]amino[benzene)sulfonyl]benzamide] |  | 7.4 |  | 100 to 1000
8 | O=C(NCc1cccnc1)Nc1ccc(S(=O)(=O)c2cccc(C(=O)NCCO)c2)cc1 [N-(2-hydroxyethyl)-3-[(4-{[(pyridin-3-ylmethyl)carbamoyl]amino[benzene)sulfonyl]benzamide] |  | 7.8 |  | 100 to 1000
9 | CC(C)CNC(=O)c1cccc(S(=O)(=O)c2ccc(NC(=O)NCc3cccnc3)cc2)c1 [N-(2-methylpropyl)-3-[(4-{[(pyridin-3-ylmethyl)carbamoyl]amino[benzene)sulfonyl]benzamide] |  | 9.7 |  | 100 to 1000
10 | CC(C)NC(=O)c1cccc(S(=O)(=O)c2ccc(NC(=O)NCc3cccnc3)cc2)c1 [N-(propan-2-yl)-3-[(4-{[(pyridin-3-ylmethyl)carbamoyl]amino[benzene)sulfonyl]benzamide] |  | 10 |  | 100 to 1000
11 | O=C(Nc1nc(-c2cccnc2)cs1)c1ccc(S(=O)(=O)N2CCc3ccccc3C2)cc1 [N-[4-(pyridin-3-yl)-1,3-thiazol-2-yl]-4-(1,2,3,4-tetrahydroisoquinoline-2-sulfonyl)benzamide] | 2620 | 11100 |  | 
12 | O=C(NCc1cccnc1)Nc1ccc(S(=O)(=O)c2cccc(C(=O)NC3CCCC3)c2)cc1 [N-cyclopentyl-3-[(4-{[(pyridin-3-ylmethyl)carbamoyl]amino[benzene)sulfonyl]benzamide] |  | 9.6 |  | 100 to 1000
13 | O=C(NCc1cccnc1)Nc1ccc(S(=O)(=O)c2cccc(C(=O)NC3CC3)c2)cc1 [N-cyclopropyl-3-[(4-{[(pyridin-3-ylmethyl)carbamoyl]amino[benzene)sulfonyl]benzamide] |  | 6.4 |  | 100 to 1000
14 | O=C(NCc1ccc2nccn2c1)c1ccc(S(=O)(=O)N2CC3CCC(C2)O3)cc1 [N-{imidazo[1,2-a]pyridin-6-ylmethyl}-4-{8-oxa-3-azabicyclo[3.2.1]octane-3-sulfonyl}benzamide] | 27.1 | 109 |  | 
15 | O=C(NCc1ccc2nccn2c1)c1ccc(S(=O)(=O)Nc2cccc(OC(F)(F)F)c2)cc1 [N-{imidazo[1,2-a]pyridin-6-ylmethyl}-4-{[3-(trifluoromethoxy)phenyl]sulfamoyl}benzamide] | 8.58 | 467 |  | 

The next lines start with results.

Row | IC50 (A2780 cells [2]; Homo sapiens, A2780, 72 h) [nM] | IC50 (NAMPT) [nM] | SMILES | effect on tumor growth in A2780 xenograft (A2780 cells [1]) | IC50 (A2780 cells [2]) [nM]
16 | 45 | 5 | CCN(CC)C(=O)CN1CCN(S(=O)(=O)c2ccc(NC(=O)NCc3cccnc3)cc2)CC1 [N,N-diethyl-2-{4-[(4-{[(pyridin-3-ylmethyl)carbamoyl]amino}benzene)sulfonyl]piperazin-1-yl}acetamide] |  | 
17 | 164 | 9 | CN(C)C(=O)C1CCN(S(=O)(=O)c2ccc(NC(=O)NCc3cccnc3)cc2)CC1 [N,N-dimethyl-1-[(4-{[(pyridin-3-ylmethyl)carbamoyl]amino}benzene)sulfonyl]piperidine-4-carboxamide] |  | 
18 | 55 | 16 | CN(C)C(=O)c1ccccc1NS(=O)(=O)c1ccc(NC(=O)NCc2cccnc2)cc1 [N,N-dimethyl-2-[(4-{[(pyridin-3-ylmethyl)carbamoyl]amino}benzene)sulfonamido]benzamide] |  | 
19 | 53 | 5 | CN(C)C(=O)c1ccc(S(=O)(=O)c2ccc(NC(=O)NCc3cccnc3)cc2)cc1 [N,N-dimethyl-4-[(4-{[(pyridin-3-ylmethyl)carbamoyl]amino}benzene)sulfonyl]benzamide] |  | 
20 | 9.71 | 11400 | O=C(NCc1ccc2ncsc2c1)c1ccc(S(=O)(=O)c2cccc(Cl)c2)cc1 [N-(1,3-benzothiazol-6-ylmethyl)-4-[(3-chlorobenzene)sulfonyl]benzamide] |  | 
21 | 37 | 3 | CC(C)NC(=O)CN1CCN(S(=O)(=O)c2ccc(NC(=O)NCc3cccnc3)cc2)CC1 [N-(propan-2-yl)-2-{4-[(4-{[(pyridin-3-ylmethyl)carbamoyl]amino}benzene)sulfonyl]piperazin-1-yl}acetamide] |  | 
22 | 374 | 9370 | O=C(NCCc1cccnc1)c1ccc(S(=O)(=O)c2cccc(OC(F)(F)F)c2)cc1 [N-[2-(pyridin-3-yl)ethyl]-4-{[3-(trifluoromethoxy)benzene]sulfonyl}benzamide] |  | 
23 | 1550 | 20500 | O=C(NCCc1cccnc1)c1ccc(S(=O)(=O)Nc2cccc(OC(F)(F)F)c2)cc1 [N-[2-(pyridin-3-yl)ethyl]-4-{[3-(trifluoromethoxy)phenyl]sulfamoyl[benzamide] |  | 
24 | 100 to 1000 | 6.7 | CCNC(=O)c1cccc(S(=O)(=O)c2ccc(NC(=O)NCc3cccnc3)cc2)c1 [N-ethyl-3-[(4-{[(pyridin-3-ylmethyl)carbamoyl]amino[benzene)sulfonyl]benzamide] |  | 
25 | 40.2 | 1.3 | CCNC(=O)c1ccc(S(=O)(=O)c2ccc(NC(=O)NCc3cccnc3)cc2)cc1 [N-ethyl-4-[(4-{[(pyridin-3-ylmethyl)carbamoyl]amino[benzene)sulfonyl]benzamide] |  | 
26 | 79 | 6 | CCN(C(C)=O)[C@H]1CCN(S(=O)(=O)c2ccc(NC(=O)NCc3cccnc3)cc2)C1 [N-ethyl-N-[(3S)-1-[(4-{[(pyridin-3-ylmethyl)carbamoyl]amino}benzene)sulfonyl]pyrrolidin-3-yl]acetamide] |  | 
27 | 11 | 1 | CNC(=O)c1ccccc1NS(=O)(=O)c1ccc(NC(=O)NCc2cccnc2)cc1 [N-methyl-2-[(4-{[(pyridin-3-ylmethyl)carbamoyl]amino}benzene)sulfonamido]benzamide] |  | 
28 | 83.8 | 3.8 | CNC(=O)c1ccc(S(=O)(=O)c2ccc(NC(=O)NCc3cccnc3)cc2)cn1 [N-methyl-5-[(4-{[(pyridin-3-ylmethyl)carbamoyl]amino}benzene)sulfonyl]pyridine-2-carboxamide] |  | 
29 | 30 | 8 | CN(C(=O)CN1CCN(S(=O)(=O)c2ccc(NC(=O)NCc3cccnc3)cc2)CC1)c1ccccc1 [N-methyl-N-phenyl-2-{4-[(4-{[(pyridin-3-ylmethyl)carbamoyl]amino}benzene)sulfonyl]piperazin-1-yl}acetamide] |  | 
30 | 39.5 | 1.5 | CC(=O)Nc1cccc(S(=O)(=O)c2ccc(NC(=O)NCc3cccnc3)cc2)c1 [N-{3-[(4-{[(pyridin-3-ylmethyl)carbamoyl]amino}benzene)sulfonyl]phenyl}acetamide] |  | 
31 | 3.54 | 19.2 | COc1cccc(S(=O)(=O)c2ccc(C(=O)NCc3ccc4nccn4c3)cc2)c1 [N-{imidazo[1,2-a]pyridin-6-ylmethyl}-4-[(3-methoxybenzene)sulfonyl]benzamide] |  | 
32 | 1.8 | 139 | O=C(NCc1ccc2nccn2c1)c1ccc(S(=O)(=O)c2cccc(OC(F)(F)F)c2)cc1 [N-{imidazo[1,2-a]pyridin-6-ylmethyl}-4-{[3-(trifluoromethoxy)benzene]sulfonyl}benzamide] |  | 
33 | 4.33 | 7.03 | O=C(NCc1ccc2nccn2c1)c1ccc(S(=O)(=O)c2cccc(C(F)(F)F)c2)cc1 [N-{imidazo[1,2-a]pyridin-6-ylmethyl}-4-{[3-(trifluoromethyl)benzene]sulfonyl}benzamide] |  | 
34 | 9780 | 3140 | CC(C)(C)OC(=O)Nc1ccc(CNC(=O)Nc2ccc(S(=O)(=O)N3CCCCC3)cc2)cn1 [tert-butylN-{5-[({[4-(piperidine-1-sulfonyl)phenyl]carbamoyl}amino)methyl]pyridin-2-yl}carbamate] |  | 
